Test results as given in US20130059890A1, “ANTIVIRAL AGENTS” (SYDNEY WEST AREA HEALTH SERVICE, priority 2009, published 2013).
“Also recorded” adds a separate entry of the source.

Test system: HCV (JFH-1) infected Huh7 cells
Settings: 24 hours; for effect on HCV replication (in words): HCV RNA by qPCR (FIG. 9; discussion)
Source text: Huh7 cells were infected with the JFH-1 strain of hepatitis C virus (genotype 2a) as previously described in Wakita et al., (2005), “Production of infectious hepatitis C virus in tissue culture from a cloned viral genome”, Nat. Med., 11(7):791-796). Briefly, pJFH-1 plasmids encoding full length HCV genome (provided by T. Wakita, National Institute of Infectious Diseases, Japan) were linearized and HCV RNA was synthesized using T7 RiboMAX™ Express Large Scale RNA Production System (Promega). 10 μg of HCV RNA was added to 1.6×10^6 Huh7 cells suspended in 800 ul PBS buffer. A Bio-Rad Gene Pulser system was used to deliver a single pulse at 0.34 kV, 975 μF, using 4 mm electroporation cuvettes. Cells were cultured at 37° C. in a 5% CO2 atmosphere in Dulbecco's modified Eagle's medium (DMEM) supplemented with 10% fetal bovine serum for 10 days (Gibco).
HCV RNA was amplified from infected Huh7 cells using specific primers targeting the 5′ noncoding region under the following conditions: 10 min at 95° C.; 40 cycles of 94° C. for 15 s and 60° C. for 45 s. Samples were analysed in triplicate and relative expression of HCV RNA normalised to 18s.
JFH-1 infected Huh7 cells cultured in 6 well plates were treated with HU-210 (100 nM), either alone or with increasing concentrations of the antagonists NlDA-41020 or (S)-SLV-319 (1 nM, 10 nM, 100 nM and 1 μM). Untreated cells and cells treated with CB1 antagonist alone (100 nM) were used as controls. After 24 hours cells were harvested, total RNA extracted, and HCV RNA measured by qPCR. Three replicate experiments were performed for each set of conditions and mean values calculated.

SMILES | effect on HCV replication (in words) | increase of HCV replication (HU-210 100 nM, HCV RNA by qPCR normalised to 18s (FIG. 7)) [%]
CCCCCCC(C)(C)c1cc(O)c2c(c1)OC(C)(C)[C@@H]1CC=C(CO)C[C@@H]21 [HU-210] | stimulated | 40
CN=C(NS(=O)(=O)c1ccc(Cl)cc1)N1C[C@H](c2ccccc2)C(c2ccc(Cl)cc2)=N1 [(S)-SLV-319, 3-(4-chlorophenyl)-N-[(4-chlorophenyl)sulfonyl]-4,5-dihydro-N′-methyl-4-phenyl-1H-pyrazole-1-carboximidamide] | inhibit HCV replication in a dose-dependent manner; also recorded: inhibited | 
